The results in this text go back to paper PMC5640650, “NatD promotes lung cancer progression by preventing histone H4 serine phosphorylation to activate Slug expression” (Nature Communications, 2017).

The subject of data set [1] is H1299 cells. Put plainly: Apoptosis and cell cycle by flow cytometry, H1299 cells. The format is cell-based, human. To be noted: vs Scr. As to the method: The in vitro viability of H1299 cells was assessed using the Cell Counting Kit-8 (CCK-8, Dojindo, Japan) according to the manufacturer’s protocol. Flow cytometric analysis of apoptosis was assessed by Annexin V and PI staining using the Annexin V-APC Apoptosis Detection Kit (KeyGEN BioTECH, China) according to the manufacturer’s guide. For cell cycle analysis, cells were harvested and fixed at 4 °C overnight with 70% ethanol. Cells were washed twice with PBS, and their DNA was stained using a Cell Cycle Detection Kit (KeyGEN BioTECH, China). The samples were analyzed by flow cytometry (Becton Dickinson, NJ, USA), and results were analyzed with FlowJo software according to the manufacturer’s instructions. For the wound healing assay, cells were plated to confluence in a 6-well plate, and the cell monolayer was scratched using a pipette tip. Representative photos were taken using a digital camera mounted on an inverted microscope (Olympus) at indicated times. Live cell imaging was performed using the HoloMonitor M4 time-lapse cytometer (Phase Holographic Imaging, Sweden). […]
Supplementary Figure 1. […] (b and c) Representative images from three independent experiments of apoptosis (b) and cell cycle analysis (c) of Scr and NatD-KD H1299 cells analyzed by flow cytometry. […]
A general note: Flow cytometry measures light scatter and fluorescence of single cells or particles in a stream.

Data set [2] deals with LLC cells. Briefly: Transwell migration and invasion assay, LLC cells. Type of data set: cell-based, murine. To be noted: LLC cells in vitro, vs Scr.
Data set [3] relates to H1299 cells. Put plainly: qPCR and western blot of EMT and proliferation genes, H1299 cells. The format is cell-based, human. The source says: Fig. 4 Silencing NatD suppresses cancer cell EMT by downregulating Slug. a Representative phase contrast images of Scr and NatD-KD H1299 cells treated with TGF-β1. Data are representative of three independent experiments. Scale bar, 100 μm. b Quantitative real-time PCR analysis of mRNA levels of indicated key EMT-related genes in Scr and NatD-KD H1299 cells normalized to GAPDH in the absence or presence of TGF-β1. Results are shown as mean ± s.d. of three independent experiments. Two-tailed Student’s t-test was used. **P < 0.01 or *P < 0.05 compared with the indicated control. c Western blot analysis of indicated protein levels in Scr and NatD-KD H1299 cells in the absence or presence of TGF-β1. GAPDH served as a loading control. Data are representative of three independent experiments. d Immunofluorescence analysis of Scr and NatD-KD H1299 cells in the absence or presence of TGF-β1 stained for E-cadherin and N-cadherin. Data are representative of three independent experiments. Scale bar, 20 μm. Migration (e, top) and invasion (f, top) of Scr cells, NatD-KD cells, and NatD-KD cells with enforced Slug expression (NatD-KD + Slug). (bottom panels) Cells were counted in at least four random microscope fields (×100 magnification) for the corresponding assays; migration and invasion are expressed as a percentage of control. Results are shown as mean ± s.d. of three independent experiments. Two-tailed Student’s t-test was used. **P < 0.01 compared with the indicated control. g Quantitative real-time PCR analysis of the mRNA levels of NatD and indicated key EMT-related genes (normalized to GAPDH) in Scr cells, NatD-KD cells, and NatD-KD + Slug cells. Results are shown as mean ± s.d. of three independent experiments. Two-tailed Student’s t-test was used. **P < 0.01 or *P < 0.05 compared with Scr or indicated control. h Western blot analysis of indicated protein levels in Scr cells, NatD-KD cells, and NatD-KD + Slug cells. GAPDH served as a loading control. Data are representative of three independent blots. i Pearson correlation scatter plot of the H score of Slug and NatD in human lung carcinoma (n = 147); r = 0.6672, P < 0.0001
Cellular proteins were extracted by RIPA lysis buffer at high salt concentration (420 mM NaCl), and western blot analysis was performed in accordance with standard protocols. Scans of enhanced chemiluminescence (ECL) films showing uncropped blots are presented in Supplementary Fig. 10. The following antibodies were used for western blotting: NatD (Abcam; ab106408, 1:1000), GAPDH (MBL International; M171-3, 1:5000), Vimentin (BD Biosciences; 550513, 1:1000), E-cadherin (BD Biosciencs; 610181, 1:1000), N-cadherin (Abcam; ab76057, 1:1000), Slug (Abcam; ab27568, 1:500), Zeb1 (ABclonal; A5600, 1:1000), Zeb2 (Abcam; ab138222, 1:500), Twist1 (ABclonal; A7314, 1:1000), Snail (Santa Cruz Biotechnology; sc-271977, 1:500), Histone H4 (PTM Biolabs; PTM-1004, 1:2000), Histone H3(Genscript; A01502, 1:1000), H4K5ac (Millipore; CS204381, 1:1000), H4K8ac (Millipore; CS204357, 1:1000), H4K12ac (Millipore; 06-1352, 1:1000), H4R3me2a (Active Motif; 39705, 1:1000), H4R3me2s (Abcam; ab5823, 1:1000), H4S1ph (Abcam; ab14723, 1:1000), CK2α (Abcam; ab70774, 1:2000), Lamin A/C (Genscript; A01455, 1:2000), and Hsp70 (Genscript; A01236, 1:1000). Peptide pulldown assays were performed according to standard protocols, [44]. Briefly, we coupled streptavidin beads to 2 μg C-terminal biotin-tagged 31-mer N-terminal peptides of histone H4 and to acetylated H4 (Nt-ac-H4), as well as to C-terminal biotin-tagged 20-mer N-terminal peptides of non-acetylated histone H3. The resulting streptavidin-coupled peptides were incubated with H1299 cellular extracts prepared with high salt extraction (420 mM NaCl). We eluted specifically bound protein from stringently washed beads, separated the samples by SDS-PAGE, and visualized proteins by western blot with anti-CK2α antibody. […]
A general note: Real-time PCR tracks product formation cycle by cycle.

Turning to “NatD-KD2: Human NatD shRNA KD2: 5′-GGTTGAATGTCTCCATTGA-3′, lentiviral (shRNA lentiviral)”, the “numbers of apoptotic cells or cell cycle” value in data set [1] was “no difference”. The “migratory and invasive capabilities” value in data set [2] is “significantly decreased”. In data set [3] (basal, knockdown vs Scr), the “expression of E-cadherin” value is “increased the expression”; the “expression of N-cadherin and Vimentin” value is recorded as “reduced the expression”; the “expression of Slug” value was “significantly repressed”; the “expression of Twist1, Snail, Zeb1, or Zeb2” value is “not changed”. Further, in data set [3] (presence of TGF-β1 relative to basal), the “changes of E-cadherin, N-cadherin, Vimentin and Slug expression with TGF-β1” value was “blocked changes of expression levels”. Further, the “expression of proliferation- and cell cycle-related genes (except CCND2)” value in data set [3] (qPCR, vs Scr) is recorded as “did not affect”.
